Test results: article PMC3170513 (Neuropeptides, 2011)
Starred links: 1 amine or outer side, 2 acyl side, 3 side chain; linkers in the order of their positions; H or OH if unused. Positions of bridges follow the written chain, without caps; N, C: chain ends. Non-standard residues stand in square brackets, D forms with d. Residues, ends and D or L forms follow the SMILES beside them. Chains are numbered I, II in the order given. Actinocin(9to1) = Cc1c2oc3c(C)ccc(C(=O)[*:1])c3nc-2c(C(=O)[*:2])c(N)c1=O; NMeV = CN[C@H](C(=O)O)C(C)C; Sar = CNCC(=O)O

Tests used:
[1] = tested on: 125I-CART 61-102 specific binding in PC12 cells; experiment: Effect of differentiation; format: cell-based, Rat; settings: 5 nM radioligand; for effect of inhibitors on specific binding, undifferentiated cells: undifferentiated PC12 cells, 6 hours, CHX 10 ug/ml, ActiD 2 mM, CytoD 4 mM, n=3 – 5
[2] = tested on: CART binding in nucleus accumbens neurons; settings: primary cell cultures; ref Jones and Kuhar, 2008; cited from earlier work
[3] = tested on: voltage dependant Ca++ signaling in hippocampal cells; settings: hippocampal cells in culture; ref Yermolaieva et al., 2001; cited from earlier work
[4] = tested on: ERK signaling in AtT20 cells; settings: ref Lakatos et al., 2005; cited from earlier work
[5] = tested on: phospho-ERK in PC12 cells; experiment: ERK activation; format: cell-based, Rat; settings: for inhibition of CART-induced phospho-ERK (general, in words): pertussis toxin
[6] = tested on: CART binding in PC12 cells; settings: ref Maixnerova et al., 2007, Maletinska et al.; cited from earlier work

## Cc1c2oc3c(C)ccc(C(=O)N[C@@H]4C(=O)N[C@H](C(C)C)C(=O)N5CCC[C@H]5C(=O)N(C)CC(=O)N(C)[C@@H](C(C)C)C(=O)O[C@@H]4C)c3nc-2c(C(=O)N[C@@H]2C(=O)N[C@H](C(C)C)C(=O)N3CCC[C@H]3C(=O)N(C)CC(=O)N(C)[C@@H](C(C)C)C(=O)O[C@@H]2C)c(N)c1=O [ActiD, Actinomycin D] (I: T[dV]P[Sar][NMeV] / II: T[dV]P[Sar][NMeV]; ester I:1-I:C, II:1-II:C; linker I:N-II:N via Actinocin(9to1))
[1]
  effect of inhibitors on specific binding, undifferentiated cells: none of the inhibitors had any effects

## C[C@@H]1C[C@@H]([C@H](O)CC2CC(=O)NC(=O)C2)C(=O)[C@@H](C)C1 [CHX, Cycloheximide]
[1]
  effect of inhibitors on specific binding, undifferentiated cells: none of the inhibitors had any effects

## C=C1[C@@H](C)[C@H]2[C@H](Cc3ccccc3)NC(=O)[C@]23[C@H](OC(C)=O)/C=C/[C@@](C)(O)C(=O)[C@@H](C)C/C=C/[C@H]3[C@@H]1O [CytoD, Cytochalasin D]
[1]
  effect of inhibitors on specific binding, undifferentiated cells: none of the inhibitors had any effects

## Nc1nc2c(ncn2[C@@H]2O[C@H](COP(=O)(O)OP(=O)(O)OP(=O)(O)O)[C@@H](O)[C@H]2O)c(=O)[nH]1 [GTP]
[2]
  specific binding in nucleus accumbens neurons and effect of nucleotides on it: reduced the binding of CART peptide

## Pertussin Toxin [PTX]
[3]
  effect on voltage dependant Ca++ signaling: blocked
[4]
  ERK signaling in AtT20 cells: reduced
[5]; PC12 cells
  inhibition of CART-induced phospho-ERK (general, in words): reduced
[5]; PC12 cells, listed as pertussis toxin
  inhibition of CART-induced phospho-ERK (general, in words): blocked
[5]; PTX 200ng/m, at least 16 hrs, N 3 days, CART 61-102 0.3 µM
  inhibition of CART-induced phospho-ERK, N-differentiated cells: prevented
[5]; PTX 200ng/m, at least 16 hrs, N + P 3 days, CART 61-102 0.3 µM
  inhibition of CART-induced phospho-ERK, N + P-differentiated cells: inhibited
[5]; PTX 200ng/m, at least 16 hrs, undifferentiated PC12 cells, CART 0.3 µM
  inhibition of CART-induced phospho-ERK, undifferentiated cells: inhibited
[5]; PTX alone vs control, PC12 cells
  effect of PTX alone on phospho-ERK: no inhibitory effect compared to control

B1: Nerve Growth Factor 2.5S (protein, UniProt P01139 122-241, looked up)
Beta-nerve growth factor: SSTHPVFHMGEFSVCDSVSVWVGDKTTATDIKGKEVTVLAEVNINNSVFRQYFFETKCRASNPVESGCRGIDSKHWNSYCTTTHTFVKALTTDEKQAAWRFIRIDTACVCVLSRKATRRG
modifications: Beta-nerve growth factor
[6]
  specific binding in PC12 cells: increased after differentiation
[1]; NGF 50ng/mL and/or PACAP 100nM, 1, 2, 3 days, N = 3 – 5
  change of specific 125I-CART 61-102 binding over 1-3 days of differentiation: increased
[5]; acute treatment, undifferentiated and differentiated PC12 cells, data not shown
  phospho-ERK stimulation, positive controls: increased ERK phosphorylation
